# Data: patent US20020169111A1, “Reversal of multidrug resistance in human colon carcinoma cells” (American Cyanamid Comany, priority 1998, published 2002)
# Several values for one entry are separate records, joined by “and”; a condition that tells them apart may be missing. Equal entries are not always repeated. Where two headings read alike, the source gives them in different places.
# What was measured:
# [1] = test system: S1-B1-20 cells; assay: Reversal of resistance in P-gp expressing cells, alone or with 21 μM bisantrene; type: cell-based, human; set-up: Difference Score: unit not given here; conditions: for Per Cent Survival with 21 μM bisantrene / Per Cent Survival Alone / Difference Score: S1-B1-20 cells; for Difference Score: survival alone minus survival with 21 μM bisantrene
# Description: To determine the specificity of FTC for non P-gp multidrug resistance, FTC was tested on S1-B1-20 cells which were selected for resistance to bisantrene and which express high levels of P-gp (Table 9)(Zhang, et al, Oncol. Res. 6291-301 (1994)). […] The 21 μM concentration of bisantrene is not inhibitory to the growth of the cells. Values shown are mean ± standard deviation from triplicate test wells.
# [2] = test system: HL-60 cells; assay: Dose modifying factor of FTC (SRB, EC50 ratio); type: cell-based; conditions: for Dose modifying factor: HL-60
# Description: (§1) Cell survival was estimated after 3 days using the SRB assay. Cell survival was determined by the SRB assay and EC50 values were determined from toxicity curves. The dose modifying factor (DMF) is the ratio of EC50 values obtained in the absence and presence of reversal agent. Maximum DMF values (shown in parentheses) is the ratio of EC50 values of resistant and sensitive cells in the absence of the reversal agent. This value is obtained when resistance is reversed completely, and is the equivalent of the relative resistance.
# [3] = test system: S1 cells; assay: Dose modifying factor of FTC (SRB, EC50 ratio); type: cell-based, human
# Description: as §1
# [4] = test system: S1-M1-3.2 cells; assay: Dose modifying factor of FTC (SRB, EC50 ratio); type: cell-based, human; conditions: S1-M1 cells
# Description: as §1
# [5] = test system: MCF-7/BCRP cells; assay: Dose modifying factor of FTC in BCRP-transfected cells; type: cell-based, human; conditions: MCF-7/BCRP
# Description: (§2) Cell survival was estimated after 3 days using the SRB assay, and EC50 values were determined from cytotoxicity curves.
# [6] = test system: MCF-7 cells; assay: Dose modifying factor of FTC (SRB, EC50 ratio); type: cell-based, human; conditions: for Dose modifying factor (5 μM FTC): MCF-7 (untransfected, Table 11)
# Description: as §1
# (§3) In order to determine the utility of FTC as a reversal agent in other multidrug resistant cell lines, FTC was tested in two breast cancer cell lines which show a multidrug resistant phenotype with no overexpression of P-gp or MRP.
# as §2
# [7] = test system: MCF-7/BCRP cells; type: cell-based, human; conditions: MCF-7/BCRP
# Description: (§4) All incubations were carried out in the absence or presence of FTC (1 or 5 μM).
# [8] = test system: MCF-7 cells; type: cell-based, human; conditions: 1 hour retention phase
# Description: as §4
# [9] = test system: MCF 7/AdVp cells; type: cell-based, human; conditions: MCF 7/AdVp; 5 μM FTC with Paclitaxel
# Description: as §1, §3
# [10] = test system: S1-M1-3.2 cells; conditions: for Per Cent Survival Alone: 3 days; for Difference Score: survival alone minus survival with 3.2 μM mitoxantrone
# Outline: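 Cells grown in medium with 5% FBS received reversal agents at 0.1-80 μM (triplicate per dose), with or without the antitumor agent, plus reversal agent-only wells; survival by SRB assay. Difference Score = % survival with drug alone minus % survival with drug plus antitumor agent.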
# [11] = test system: H460; assay: Sensitization of unselected cells to mitoxantrone; type: cell-based; conditions: H460 non small cell lung carcinoma, not selected
# [12] = test system: A549; assay: Sensitization of unselected cells to mitoxantrone; type: cell-based; conditions: A549 non small cell lung carcinoma, not selected
# [13] = 1 μM [14C]-doxorubicin, 1 hour retention phase
# [14] = 1 μM daunorubicin, 1 hour retention phase
structure (smiles),measurement,setting,value
COc1ccc2c3c([nH]c2c1)[C@H](C=C(C)C)N1C(=O)[C@@H]2CCCN2C(=O)[C@@H]1C3 [Fumitremorgin C],Per Cent Survival with 21 μM bisantrene,[1]; drug 0.1 μM,101 ± 1 Per Cent
same,Per Cent Survival Alone,[1]; drug 0.1 μM alone,99 ± 1 Per Cent
same,Difference Score,[1]; drug 0.1 μM,−4
same,Per Cent Survival with 21 μM bisantrene,[1]; drug 0.5 μM,103 ± 1 Per Cent
same,Per Cent Survival Alone,[1]; drug 0.5 μM alone,99 ± 1 Per Cent
same,Difference Score,[1]; drug 0.5 μM,−4
same,Per Cent Survival with 21 μM bisantrene,[1]; drug 1 μM,100 ± 0 Per Cent
same,Per Cent Survival Alone,[1]; drug 1 μM alone,98 ± 3 Per Cent
same,Difference Score,[1]; drug 1 μM,−2
same,Per Cent Survival with 21 μM bisantrene,[1]; drug 5 μM,103 ± 2 Per Cent
same,Per Cent Survival Alone,[1]; drug 5 μM alone,101 ± 3 Per Cent
same,Difference Score,[1]; drug 5 μM,−2
same,Per Cent Survival with 21 μM bisantrene,[1]; drug 10 μM,93 ± 1 Per Cent
same,Per Cent Survival Alone,[1]; drug 10 μM alone,88 ± 0 Per Cent
same,Difference Score,[1]; drug 10 μM,−4
same,Per Cent Survival with 21 μM bisantrene,[1]; drug 20 μM,89 ± 1 Per Cent
same,Per Cent Survival Alone,[1]; drug 20 μM alone,85 ± 0 Per Cent
same,Difference Score,[1]; drug 20 μM,−4
same,Per Cent Survival with 21 μM bisantrene,[1]; drug 40 μM,77 ± 2 Per Cent
same,Per Cent Survival Alone,[1]; drug 40 μM alone,83 ± 1 Per Cent
same,Difference Score,[1]; drug 40 μM,13
same,Per Cent Survival with 21 μM bisantrene,[1]; drug 80 μM,53 ± 5 Per Cent
same,Per Cent Survival Alone,[1]; drug 80 μM alone,35 ± 1 Per Cent
same,Difference Score,[1]; drug 80 μM,−18
same,reversal of resistance in P-gp positive S1-B1-20 cells (in words),[1]; bisantrene-selected,did not reverse resistance
same,Dose modifying factor,[2]; 5 μM FTC with Doxorubicin,2.1
same,Dose modifying factor,[2]; 5 μM FTC with Mitoxantrone,1.3
same,Dose modifying factor,[2]; 5 μM FTC with Paclitaxel,1.0
same,"reversal activity of FTC (fold), range over drugs",[2]; parental line HL-60,1.0-2.1 fold
same,Dose modifying factor,[3]; 5 μM FTC with Doxorubicin,1
same,Dose modifying factor,[3]; 5 μM FTC with Mitoxantrone,1
same,Dose modifying factor,[3]; 5 μM FTC with Paclitaxel,1.4
same,Dose modifying factor,[3]; 5 μM FTC with Topotecan,0.9
same,Dose modifying factor,"[4]; 5 μM FTC with Doxorubicin, listed as FTC",26 and 25.9
same,Dose modifying factor,[4]; 5 μM FTC with Mitoxantrone,93
same,Dose modifying factor,[4]; 5 μM FTC with Paclitaxel,1.1
same,Dose modifying factor,[4]; 5 μM FTC with Topotecan,24
same,Dose modifying factor (5 μM FTC),[5]; with Doxorubicin,6.6
same,Dose modifying factor (5 μM FTC),[5]; with Mitoxantrone,29.4
same,Dose modifying factor (5 μM FTC),[5]; with Paclitaxel,1.1
same,Dose modifying factor (5 μM FTC),[5]; with Topotecan,6.5
same,Dose modifying factor,"[6]; MCF 7 (row above MCF 7/AdVp), 5 μM FTC with Doxorubicin",2.0
same,Dose modifying factor,"[6]; MCF 7 (row above MCF 7/AdVp), 5 μM FTC with Mitoxantrone",7.5
same,Dose modifying factor,"[6]; MCF 7 (row above MCF 7/AdVp), 5 μM FTC with Paclitaxel",1.0
same,Dose modifying factor,"[6]; MCF 7 (row above MCF 7/mtxR), 5 μM FTC with Doxorubicin",1.0
same,Dose modifying factor,"[6]; MCF 7 (row above MCF 7/mtxR), 5 μM FTC with Mitoxantrone",1.7
same,Dose modifying factor,"[6]; MCF 7 (row above MCF 7/mtxR), 5 μM FTC with Paclitaxel",0.8
same,Dose modifying factor (5 μM FTC),[6]; with Doxorubicin,1.0
same,Dose modifying factor (5 μM FTC),[6]; with Mitoxantrone,2.5
same,Dose modifying factor (5 μM FTC),[6]; with Paclitaxel,0.7
same,Dose modifying factor (5 μM FTC),[6]; with Topotecan,5.6
same,"Reversal by FTC (fold), range over drugs",[6]; parental unselected MCF-7 cells,0.8-1.7 fold
same,"reversal by FTC (fold), mitoxantrone and topotecan","[6]; untransfected MCF-7 cells, 5 μM FTC",2.5-5.6 fold
same,"[^14C] doxorubicin retention, 1 μM FTC",[7]; [13],9.5 ± 0.63 DPM per microgram protein
same,"[^14C] doxorubicin retention, 5 μM FTC",[7]; [13],9.9 ± 0.18 DPM per microgram protein
same,"daunorubicin retention, Channel Number (fluorescence units), 1 μM FTC",[7]; [14],12.2 ± 1.78 fluorescence units
same,"daunorubicin retention, Channel Number (fluorescence units), 5 μM FTC",[7]; [14],15.6 ± 0.94 fluorescence units
same,increase of amount of [^14C]-doxorubicin retained compared with untreated cells,[7]; FTC 1 or 5 μM,1.8 fold
same,increase of amount of daunorubicin retained compared with untreated cells,[7]; FTC 1 or 5 μM,1.8-2.3 fold
same,"[^14C] doxorubicin retention, 1 μM FTC",[8]; 1 μM [14C]-doxorubicin,10.3 ± 0.26 DPM per microgram protein
same,"[^14C] doxorubicin retention, 5 μM FTC",[8]; 1 μM [14C]-doxorubicin,11.0 ± 0.71 DPM per microgram protein
same,"daunorubicin retention, Channel Number (fluorescence units), 1 μM FTC",[8]; 1 μM daunorubicin,16.0 ± 0.98 fluorescence units
same,"daunorubicin retention, Channel Number (fluorescence units), 5 μM FTC",[8]; 1 μM daunorubicin,16.8 ± 1.0 fluorescence units
same,Dose modifying factor,[9],0.7 (10.7)
same,concentration giving 40% cell death (compound alone),[10]; S1-M1-3.2 cells,greater than 80 μM
same,toxicity alone (in words),"[10]; S1-M1-3.2 cells, dose range tested 0.1-80 μM",No toxicity
same,Per Cent Survival with 3.2 μM mitoxantrone,"[10]; S1-M1-3.2 cells, drug 0.1 μM",95 ± 4 Per Cent
same,Per Cent Survival Alone,"[10]; S1-M1-3.2 cells, drug 0.1 μM alone",105 ± 4 Per Cent
same,Difference Score,"[10]; S1-M1-3.2 cells, drug 0.1 μM",10
same,Per Cent Survival with 3.2 μM mitoxantrone,"[10]; S1-M1-3.2 cells, drug 0.5 μM",39 ± 10 Per Cent
same,Per Cent Survival Alone,"[10]; S1-M1-3.2 cells, drug 0.5 μM alone",105 ± 2 Per Cent
same,Difference Score,"[10]; S1-M1-3.2 cells, drug 0.5 μM",66
same,Per Cent Survival with 3.2 μM mitoxantrone,"[10]; S1-M1-3.2 cells, drug 1 μM",30 ± 1 Per Cent
same,Per Cent Survival Alone,"[10]; S1-M1-3.2 cells, drug 1 μM alone",103 ± 1 Per Cent
same,Difference Score,"[10]; S1-M1-3.2 cells, drug 1 μM",73
same,Per Cent Survival with 3.2 μM mitoxantrone,"[10]; S1-M1-3.2 cells, drug 5 μM",24 ± 4 Per Cent
same,Per Cent Survival Alone,"[10]; S1-M1-3.2 cells, drug 5 μM alone",99 ± 5 Per Cent
same,Difference Score,"[10]; S1-M1-3.2 cells, drug 5 μM",75
same,Per Cent Survival with 3.2 μM mitoxantrone,"[10]; S1-M1-3.2 cells, drug 10 μM",22 ± 6 Per Cent
same,Per Cent Survival Alone,"[10]; S1-M1-3.2 cells, drug 10 μM alone",99 ± 1 Per Cent
same,Difference Score,"[10]; S1-M1-3.2 cells, drug 10 μM",77
same,Per Cent Survival with 3.2 μM mitoxantrone,"[10]; S1-M1-3.2 cells, drug 20 μM",17 ± 10 Per Cent
same,Per Cent Survival Alone,"[10]; S1-M1-3.2 cells, drug 20 μM alone",104 ± 4 Per Cent
same,Difference Score,"[10]; S1-M1-3.2 cells, drug 20 μM",87
same,Per Cent Survival with 3.2 μM mitoxantrone,"[10]; S1-M1-3.2 cells, drug 40 μM",14 ± 11 Per Cent
same,Per Cent Survival Alone,"[10]; S1-M1-3.2 cells, drug 40 μM alone",108 ± 5 Per Cent
same,Difference Score,"[10]; S1-M1-3.2 cells, drug 40 μM",94
same,Per Cent Survival with 3.2 μM mitoxantrone,"[10]; S1-M1-3.2 cells, drug 80 μM",13 ± 11 Per Cent
same,Per Cent Survival Alone,"[10]; S1-M1-3.2 cells, drug 80 μM alone",94 ± 4 Per Cent
same,Difference Score,"[10]; S1-M1-3.2 cells, drug 80 μM",81
same,Toxicity (>20%),"[10]; compound alone, concentration that causes greater than 20% cell death of S1-M1-3.2 cells",>80.0 µM
same,Toxicity (>20%) (μM),"[10]; compound alone, concentration that causes greater than 20% cell death of S1-M1-3.2 cells, listed as FTC",greater than 80.0 μM
same,IC50,"[10]; read-out: IC50 (μM), resensitizing S1-M1-3.2 cells to mitoxantrone, with 3.2 μM mitoxantrone, 50% cancer cell death, listed as FTC",0.35 µM and 0.3 µM
same,sensitization to mitoxantrone (in words),[11],can be sensitized to mitoxantrone
same,sensitization to mitoxantrone (in words),[12],can be sensitized to mitoxantrone
